Results taken from patent EP0314302A2, “Herbicidal o-carbomethoxy-sulfonylureas” (E.I. DU PONT DE NEMOURS AND COMPANY, priority 1987, dated 1989).

Assays:
Purple nutsedge = assay: Test 11 citrus pots, postemergence to the weeds; assay type: in vivo, Cyperus rotundus; settings: Postemergence 32 g/ha, 0.25% X-77 surfactant, scale 0-100
Protocol: (§1) Budded citrus seedlings were planted in 30-liter plastic pots which were also seeded with sandbur, guineagrass, narrowleaf panicum, common ragweed, yellow nutsedge, purple nutsedge and bindweed. Compound I was applied preemergence and postemergence to the weeds. Treatments were sprayed to simulate the trunk-to-trunk herbicide application method used in some citrus groves. The compound was also applied postemergence to weeds grown in windowsill flats. The flats were filled with planting medium and seeded with morningglory (Ipomoea spp.). purple nutsedge (Cyperus rotundus), pigweed (Amaranthus spp.), bindweed (Convolvulus spp.), narrowleaf panicum (Panicum maximum), common ragweed (Ambrosia artemisiifolia), sandbur (Cenchrus echinatus), itchgrass (Rottboellia exaltata), johnsongrass (Sorghum halepense), guineagrass (Panicum maximum), smooth crabgrass (Digitaria ischaemum), broadleaf signalgrass (Brachiaria platyphylla), bermudagrass (Cynodon dactylon), goosegrass (Eleusine indica), large crabgrass (Digitaria sanguinalis) and yellow nutsedge (Cyperus esculentus).
(§2) The compound was formulated and sprayed with 0.25% X-77 surfactant in water. Plants were visually rated 21 and 29 days after treatment and compared with appropriate controls. Injury ratings were based on the scale of 0 to 100, where 0 indicates no effect, 20 indicates minimum effect and 100 indicates complete control. […]

Yellow nutsedge = assay: Test 11 citrus pots, postemergence to the weeds; assay type: in vivo, Cyperus esculentus; settings: Postemergence 32 g/ha, 0.25% X-77 surfactant, scale 0-100
Protocol: as §1, §2

Goosegrass = assay: Test 11 windowsill flats, postemergence; assay type: in vivo, Eleusine indica; settings: Postemergence 32 g/ha, 0.25% X-77 surfactant, scale 0-100
Protocol: as §1, §2

Sandbur = assay: Test 9 postemergence; assay type: in vivo, Cenchrus echinatus; settings: scale 0-100
Protocol: Plastic windowsill pots containing planting medium were seeded with bahiagrass, bindweed (Convolvulus spp), guinea grass (Panicum maximum), large crabgrass (Digitaria sanguinalis) and pigweed (Amaranthus spp). Individual 15-cm plastic pots contained sandbur (Cenchrus echinatus), Mikania cordata, Boston fern (Nephrolepis exalata), quackgrass (Agropyron repens), elephantgrass (Pennisetum purpureum) and sowthistle (Sonchus spp) plants.
Plants were treated postemergence with Compound I formulated in a non-phytotoxic solvent. Plants were visually rated 22 days after treatment (DAT). Injury and weed control ratings were based on the scale of 0 to 100 where 0 = no effect, 20 = minimal control and 100 = complete control.

Sour Lemon = assay: Test 12 over-the-top application, postemergence; assay type: in vivo; settings: 26 days after treatment, scale 0-100
Excerpt: The object of this test was to evaluate the safety of sour lemon to the over-the-top application of Compound I and control of lantana (Lantana camara) and trumpetcreeper (Campsis radicans). Plants were sprayed postemergence with Compound I formulated in a non-phytotoxic solvent. Treated plants were visually rated 26 days after treatment and compared with appropriate controls. Injury ratings were based on the scale of 0 to 100, where 0 indicates no effect, 20 indicates minimal effect and 100 indicates complete control.

Viola = assay: Test 7 postemergence; assay type: in vivo, Viola spp; settings: scale 0-100
Protocol: (§3) Individual 11.4-cm plastic pots filled with planting medium were seeded with rape, wild radish (Raphanus raphanistruna). tansy mustard (Descurainia pinnata), ball mustard (Neslia paniculata), black mustard (Brassica nigra), yellow mustard, brown mustard, lentils, safflower, flax, sunflower, peanut, vetch, alfalfa, field bean, pea, violet (Viola spp), Kochia (Kochia spp), Russian thistle (Salsola spp), Matricaria spp, groundsel (Senecio spp), shepherdspurse (Capsella bursa-pastoris), nightshade (Solanum spp), sowthistle (Sonchus spp), sugar beet, wheat, "Bonanza" barley and "Morex" barley, Kentucky bluegrass (Poa pratensis), red clover (Trifolium pratense), dandelion (Taraxacum spp) and buckhorn plantain (Plantago lanceolata).
(§4) Plants were treated postemergence with the compound formulated with a non-phytotoxic carrier. Plants were visually rated 18 days after treatment (DAT). Response ratings were based on the scale of 0 to 100 where 0 = no effect, 20 = minimal injury and 100 = complete control.

Black mustard = assay: Test 7 postemergence; assay type: in vivo, Brassica nigra; settings: scale 0-100
Protocol: as §3, §4

Green foxtail = assay: Test 10 postemergence safety to crops and weed control; assay type: in vivo, Setaria viridis; settings: 16 g/ha, scale 0-100
Protocol: The object of these tests was to evaluate the compound of this invention for postemergence safety to crops and weed control. Seedling and budded Macedine grapes were grown in 11.4-cm pots. Flax, green foxtail (Setaria viridis), "Morex" barley, wild oats (Avena fatua), "Era" wheat, annual ryegrass (Lolium multiflorum), wild radish (Raphanus raphanistrum), rape, sunflower, chickweed (Stellaria media) and wild buckwheat (Polygonum convolvulus) were seeded in windowsill pots.
The plants were sprayed postemergence with Compound I in a non-phytotoxic solvent. Plants were visually rated 15 and 27 days after treatment (DAT). Injury and weed control ratings were based on the scale of 0 to 100 where 0 = no effect, 20 minimal control and 100 = complete control.

coffee = assay: Test 6 effect of surfactants, postemergence; assay type: in vivo, Coffea spp; settings: addition of a surfactant
Excerpt: The object of this test was to evaluate the effect of surfactants and plant growth stage on the efficacy of the compound of this invention. Plastic windowsill pots were filled with planting medium and seeded with yellow nutsedge (Cyperus esculentus), large crabgrass (Digitaria sanguinalis), goosegrass (Elsusine indica), bermudagrass (Cynodon dactylon), broadleaf signalgrass (Brachiara platyphalla), smooth crabgrass (Digitaria ischaemum), guinea grass (Panicum maximum) and johnsongrass (Sorghum halapense). Coffee (Coffea spp) plants with 2 to 4 branches were included in one test.
Plants were treated postemergence with Compound I formulated with different surfactants or a non-phytotoxic carrier made up of acetone-humectant-water-surfactant.

Broadleaf signalgrass = assay: Test 11 windowsill flats, postemergence; assay type: in vivo, Brachiaria platyphylla; settings: Postemergence 32 g/ha, 0.25% X-77 surfactant, scale 0-100
Protocol: as §1, §2

Red clover = assay: Test 7 postemergence; assay type: in vivo, Trifolium pratense; settings: scale 0-100
Protocol: as §3, §4

Loblolly pine = assay: Test 13 conifer seedlings, postemergence; assay type: in vivo; settings: scale 0-100
Excerpt: Conifer species (Loblolly pine) seedlings were transplanted into 15-cm plastic pots filled with planting medium. Compound I was applied postemergence to the loblolly pine seedlings. The compound was formulated in a non-phytotoxic spray solvent. Plans were visually rated 240 days after treatment (DAT) and compared with appropriate controls. Injury ratings are based on the scale of 0 to 100, where 0 indicates no effect, 20 indicates minimal injury and 100 indicates complete kill.

Tansy mustard = assay: Test 7 postemergence; assay type: in vivo, Descurainia pinnata; settings: scale 0-100
Protocol: as §3, §4

COC(=O)c1cccnc1S(=O)(=O)NC(=O)Nc1nc(OC)cc(OC)n1 [Compound I, 2-[[(4,6-dimethoxypyrimidin-2-yl)aminocarbonyl]aminosulfonyl]-3-pyridinecarboxylic acid, methyl ester]
Injury ratings (Purple nutsedge): 90
Injury ratings (Yellow nutsedge): 100
Injury ratings (Goosegrass): 90
Plant Injury Rating 22 DAT (Sandbur; 8 g/ha): 100
Plant Injury Rating 22 DAT (Sandbur; 16 g/ha): 100
Plant Injury Rating 22 DAT (Sandbur; 32 g/ha): 100
Injury ratings (Sour Lemon; 8 g/ha): 20
Injury ratings (Sour Lemon; 16 g/ha): 50
Injury ratings (Sour Lemon; 32 g/ha): 70
Plant Injury Rating 18 DAT (Viola; 16 g/ha): 100
Plant Injury Rating 18 DAT (Viola; 32 g/ha): 100
Plant Injury Rating 18 DAT (Black mustard; 16 g/ha): 100
Plant Injury Rating 18 DAT (Black mustard; 32 g/ha): 100
Plant Injury Rating 15 DAT (Green foxtail): 100
safety to coffee (coffee): maintaining safety to coffee
Injury ratings (Broadleaf signalgrass): 100
Plant Injury Rating 18 DAT (Red clover; 16 g/ha): 100
Plant Injury Rating 18 DAT (Red clover; 32 g/ha): 100
Plant Injury Rating 240 DAT (Loblolly pine; 8 g/ha): 0
Plant Injury Rating 240 DAT (Loblolly pine; 16 g/ha): 0
Plant Injury Rating 240 DAT (Loblolly pine; 32 g/ha): 0
Plant Injury Rating 240 DAT (Loblolly pine; 64 g/ha): 0
Plant Injury Rating 240 DAT (Loblolly pine; 125 g/ha): 0
Plant Injury Rating 18 DAT (Tansy mustard; 16 g/ha): 100
Plant Injury Rating 18 DAT (Tansy mustard; 32 g/ha): 100
